Reference: ChEMBL document CHEMBL6153139, “Discovery of Novel Isoxazole-Based Small-Molecule Toll-Like Receptor 8 Antagonists” (J Med Chem, 2025)
Calls of active or inactive are those of the source. No cut-off for these calls is given here.

Legend:
[1] = Cytotoxicity against HEK-Blue hTLR8 cells assessed as reduction in cell viability at 25 to 50 uM incubated for 24 hrs by MTT assay; type: toxicity, cell-based; conditions: human, hek-blue htlr8, 24 h, dose 25-50 µM
[2] = tested on: T1, Toll-like receptor 8 (Homo sapiens), Q9NR97 [F495L]; assay: Antagonist activity at human TLR8 F495L mutant transfected in HEK293 cells assessed as inhibition of CL075 induced NFkappaB activation at 1 uM preincubated with compound for 1 hrs followed by CL075 addition and measured after 24 hrs by Quanti-blue reagent based SEAP reporter assay; type: cell-based; conditions: filed as antagonist
T1 sequence (whole entry): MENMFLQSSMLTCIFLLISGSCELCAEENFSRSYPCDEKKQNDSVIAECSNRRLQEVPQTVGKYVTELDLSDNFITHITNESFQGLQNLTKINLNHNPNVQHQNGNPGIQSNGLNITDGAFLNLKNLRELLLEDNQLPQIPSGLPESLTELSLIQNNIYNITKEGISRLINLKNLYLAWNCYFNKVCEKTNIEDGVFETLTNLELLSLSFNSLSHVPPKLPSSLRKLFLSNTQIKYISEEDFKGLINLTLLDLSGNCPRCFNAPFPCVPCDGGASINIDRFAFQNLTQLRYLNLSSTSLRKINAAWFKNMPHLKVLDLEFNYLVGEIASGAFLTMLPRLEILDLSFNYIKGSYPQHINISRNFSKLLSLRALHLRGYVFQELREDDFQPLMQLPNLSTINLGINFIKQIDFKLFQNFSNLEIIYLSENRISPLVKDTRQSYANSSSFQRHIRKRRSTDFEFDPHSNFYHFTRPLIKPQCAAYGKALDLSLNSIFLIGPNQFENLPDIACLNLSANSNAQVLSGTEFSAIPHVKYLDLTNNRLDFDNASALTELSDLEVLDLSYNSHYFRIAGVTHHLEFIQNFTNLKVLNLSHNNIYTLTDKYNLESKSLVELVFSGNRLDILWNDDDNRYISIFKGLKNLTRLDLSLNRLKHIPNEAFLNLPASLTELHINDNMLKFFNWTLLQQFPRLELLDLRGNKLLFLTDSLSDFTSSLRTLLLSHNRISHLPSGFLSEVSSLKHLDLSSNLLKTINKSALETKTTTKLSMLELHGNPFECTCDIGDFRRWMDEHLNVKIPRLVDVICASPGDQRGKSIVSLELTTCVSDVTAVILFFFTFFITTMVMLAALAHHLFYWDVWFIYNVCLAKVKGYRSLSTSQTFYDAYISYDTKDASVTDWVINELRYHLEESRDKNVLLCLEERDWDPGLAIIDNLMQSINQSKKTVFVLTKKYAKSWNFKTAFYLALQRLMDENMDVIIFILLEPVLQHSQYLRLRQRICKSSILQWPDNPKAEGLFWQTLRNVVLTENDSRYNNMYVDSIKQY

[3] = tested on: T1, Toll-like receptor 8 (Homo sapiens), Q9NR97 [F495L]; assay: Antagonist activity at human TLR8 F495L mutant transfected in HEK293 cells assessed as inhibition of TL8-506 induced NFkappaB activation at 1 uM preincubated with compound for 1 hrs followed by TL8-506 addition and measured after 24 hrs by Quanti-blue reagent based SEAP reporter assay; type: cell-based; conditions: filed as antagonist
[4] = Cytotoxicity against human PBMC cells assessed as reduction in cell viability upto 100 uM incubated for 24 hrs by LDH release assay; type: toxicity, cell-based
THP-1 = assay: Cytotoxicity against human THP-1 cells assessed as reduction in cell viability upto 100 uM incubated for 24 hrs by MTT assay; type: toxicity, cell-based; conditions: thp-1, 24 h

SMILES | Activity [1] | Activity [2] | Activity [3] | Activity [4] | Activity (THP-1)
COc1cc(C(=O)NCCN2CCCC2)ccc1OCc1c(C)noc1C | Non-toxic | – | – | – | –
N#Cc1ccc(N2C[C@H](N)C[C@H](C(F)(F)F)C2)c2cccnc12 | – | Active | Active | – | –
Cc1noc(C)c1COc1ccc(C(=O)NCC(c2ccco2)N(C)C)cc1 (configuration not stated) | Non-toxic | – | – | – | –
COc1cc(C(=O)NCC(c2ccc(C)cc2)N(C)C)ccc1OCc1c(C)noc1C (configuration not stated) | Non-toxic | – | – | Non-toxic | Non-toxic
